biological target: T1, pyranose oxidase (Trametes versicolor, UniProt P79076); assay: Substrate specificity of pyranose oxidase (hydrogen peroxide / 4-aminoantipyrine-phenol-peroxidase colour reaction); assay type: biochemical, Coriolus versicolor; conditions: pH 7
T1 construct: purified, about 290 kDa by gel filtration; mature N-terminus […] in fungal enzyme; pPRME18 is the alternative N-terminally shortened construct
Experimental: 3.0 ml of an enzyme-containing solution consisting of 1.0 ml of 0.1M Tris-HC1 buffer, pH 7.0, 0.2 ml of a color-producing solution (prepared by adding 2000 U peroxidase to 100 ml of 0.1 M Tris-HCl buffer, pH 7.0 containing 10 mM 4-aminoantipyrine and 10 mM phenol), 0.1 ml of 1M glucose, 0.1 ml pyranose oxidase solution and 1.6 ml water was allowed to react at 37° C., and the increase in absorbance at 500 nm was determined with U2000 double beam spectrophotometer (manufactured by Hitachi, Ltd.).
One unit of enzyme activity is defined as the amount of enzyme which causes formation of 1 μmol of hydrogen peroxide per minute at 37° C., pH 7.0. The calculation of […] was carried out using the following equation assuming that the molecular extinction coefficient of the quinoimine pigment formed under the above conditions is 5.3 x 10^3 : Enzyme activity: (ΔA500 /5.3)×(3.0/0.1)×dilution degree of enzyme.
For examination of the substrate specificity of the present enzyme, each of sugar solutions (0.1 M) shown in Table 1 was used in place of glucose in the method described in (1) above. 2.5 units of pyranose oxidase were added to the reaction solution. The activity for each substrate is shown in relative activity that is expressed relative to that (100%) for the substrate glucose.

Question: How did the “relative activity (%)” value turn out when galactose was run?
Answer: The value was 3.2%.

Question: How did the “relative activity (%)” value turn out when mannose was run?
Answer: The value was 0.2%.

same assay, conditions: pH 7, read-out: relative activity (%)

Question: For `O=C(CO)[C@@H](O)[C@H](O)[C@@H](O)CO` [L-sorbose], which activity at 3300 µM is on record?
Answer: The activity at 3300 µM was 9%.

same assay, conditions: substrate 3.3 mM; relative to glucose = 100%; 2.5 units of pyranose oxidase; 37° C., pH 7.0

Question: Which “relative activity (%)” value does the source give for `O=C(O)[C@H](O)[C@@H](O)[C@H](O)[C@H](O)CO` [gluconic acid] here?
Answer: The value was 0.4%.

Question: How did the “relative activity (%)” value turn out when `OC[C@H]1O[C@H](O[C@H]2[C@H](O)[C@@H](O)[C@H](O)O[C@@H]2CO)[C@H](O)[C@@H](O)[C@@H]1O` [maltose] was run?
Answer: The value was 1.1%.

Question: With `OC[C@H]1O[C@H](O[C@H]2O[C@H](CO)[C@@H](O)[C@H](O)[C@H]2O)[C@H](O)[C@@H](O)[C@@H]1O` [trehalose] as the compound, how does the “relative activity (%)” value read?
Answer: Its value is 0.1%.

same assay, conditions: substrate 3.3 mM; relative to glucose = 100%; 2.5 units of pyranose oxidase; 37° C., pH 7.0; read-out: relative activity (%)

Question: `OC[C@H]1OC[C@H](O)[C@@H](O)[C@@H]1O` [1,5-anhydro-D-glucitol] was tested. Which activity at 3300 µM did it give?
Answer: The activity at 3300 µM was 14.2%.

Question: `OC[C@H]1OC(O)C[C@@H](O)[C@@H]1O` (stereo partly drawn) [2-deoxy-D-glycose] was tested. Which activity at 3300 µM did it give?
Answer: Its activity at 3300 µM is 1.6%.

Question: With `O=C1O[C@H](CO)[C@@H](O)[C@H](O)[C@H]1O` [D-gluconic acidδ lactone] as the compound, how does the activity at 3300 µM read?
Answer: The activity at 3300 µM was 0.4%.

Question: How did the activity at 3300 µM turn out when `OC[C@@H](O)[C@@H](O)[C@H](O)[C@@H](O)CO` [D-sorbitol] was run?
Answer: The activity at 3300 µM was 0%.

Question: `OC1OC[C@@H](O)[C@H](O)[C@H]1O` (stereo partly drawn) [D-xylose] was tested. Which activity at 3300 µM did it give?
Answer: The activity at 3300 µM was 6.5%.

Question: For `C[C@@H]1OC(O)[C@H](O)[C@H](O)[C@H]1O` (stereo partly drawn) [L-rhamnose], which activity at 3300 µM is on record?
Answer: Its activity at 3300 µM is 0.1%.

Question: With `CC(=O)N[C@H]1C(O)O[C@H](CO)[C@@H](O)[C@@H]1O` (stereo partly drawn) [N-acetyl-D-glucosamine] as the compound, how does the activity at 3300 µM read?
Answer: Its activity at 3300 µM is 0%.

Question: Which activity at 3300 µM does the source give for `OC[C@H]1O[C@H](OC[C@H]2O[C@H](O[C@]3(CO)O[C@H](CO)[C@@H](O)[C@@H]3O)[C@H](O)[C@@H](O)[C@@H]2O)[C@H](O)[C@@H](O)[C@H]1O` [raffinose] here?
Answer: Its activity at 3300 µM is 0%.

Question: Which activity at 3300 µM does the source give for `OC[C@H]1O[C@@](CO)(O[C@H]2O[C@H](CO)[C@@H](O)[C@H](O)[C@H]2O)[C@@H](O)[C@@H]1O` [sucrose] here?
Answer: Its activity at 3300 µM is 0%.

Question: With `OC[C@@H](O)[C@H](O)[C@@H](O)CO` [xylitol] as the compound, how does the activity at 3300 µM read?
Answer: Its activity at 3300 µM is 0%.

same assay, conditions: summary of Table 1

Question: For `OC[C@H]1OC[C@H](O)[C@@H](O)[C@@H]1O` [1,5-anhydro-D-glucitol], which “substrate specificity in words” value is on record?
Answer: Its value is “acts on”.

Question: How did the “substrate specificity in words” value turn out when `OC1OC[C@@H](O)[C@H](O)[C@H]1O` (stereo partly drawn) [D-xylose] was run?
Answer: The value was “acts on”.

Question: For galactose, which “substrate specificity in words” value is on record?
Answer: The value was “acts on”.

Source: patent US5712139A, “Pyranose oxidase, pyranose oxidase gene, novel recombinant DNA and process for producing pyranose oxidase” (Kikkoman Corporation, priority 1994, dated 1998)
